Values of other authors in patent publication WO2011084962A1, “Analogs of dehydrophenylahistins” (Nereus Pharmaceuticals Inc, priority 2010, dated 2011).

Key:
[1] = tested on: VEGF induced retinal neovascularization; conditions: in vivo
[2] = tested on: retinal neovascularization; conditions: occurs during proliferative retinopathy
[3] = tested on: choroidal neovascularization; conditions: in vivo
[4] = tested on: neovessels in non-neoplastic tissue; conditions: in vivo
[5] = tested on: cell cycle progression in the M phase

SMILES	inhibition of cell cycle progression in the M phase [5]	effect on the microtubule assembly (microtubule assembly)	further results
COc1ccc(/C=C\c2cc(OC)c(OC)c(OC)c2)cc1OP(=O)(O)O [CA-4P]	–	–	suppression of the development of VEGF induced retinal neovascularization [1]: suppress the development of VEGF induced retinal neovascularization; inhibition of retinal neovascularization [2]: inhibit the retinal neovascularization that occurs during proliferative retinopathy; inhibition of development and/or partial regression of choroidal neovascularization [3]: inhibit the development and/ or cause partial regression of choroidal neovascularization
COc1ccc(/C=C\c2cc(OC)c(OC)c(OC)c2)cc1O [Combretastatin A-4]	–	–	disruption of neovessels in non-neoplastic tissue [4]: cause the disruption of neovessels in non-neoplastic tissue
COc1ccc2c(C[C@@H]3NC(=O)[C@@H]4CCCN4C3=O)c(CC=C(C)C)[nH]c2c1 [tryprostatin A]	inhibited cell cycle progression in the M phase	affect the microtubule assembly	–
CC(C)=CCc1[nH]c2ccccc2c1C[C@@H]1NC(=O)[C@@H]2CCCN2C1=O [tryprostatin B]	inhibited cell cycle progression in the M phase	affect the microtubule assembly	–
